Patent publication US20230139506A1, “HETEROCLITIC CANCER VACCINES” (MEMORIAL SLOAN KETTERING CANCER CENTER, priority 2020, published 2023)

Columns and labels:
H-2Kb = target: T1, H-2Kb (Mus musculus, UniProt P01901); experiment: MHC-I stabilization assay using TAP-deficient RMA/S cells; assay type: cell-based, murine
T1 construct: its ability to stabilize MHC-I in the H-2Kb-expressing TAP-deficient RMA/S cell line; endogenous in cells; host or cells: RMA/S cells (murine, TAP-deficient)
T1 sequence (P01901 22-369): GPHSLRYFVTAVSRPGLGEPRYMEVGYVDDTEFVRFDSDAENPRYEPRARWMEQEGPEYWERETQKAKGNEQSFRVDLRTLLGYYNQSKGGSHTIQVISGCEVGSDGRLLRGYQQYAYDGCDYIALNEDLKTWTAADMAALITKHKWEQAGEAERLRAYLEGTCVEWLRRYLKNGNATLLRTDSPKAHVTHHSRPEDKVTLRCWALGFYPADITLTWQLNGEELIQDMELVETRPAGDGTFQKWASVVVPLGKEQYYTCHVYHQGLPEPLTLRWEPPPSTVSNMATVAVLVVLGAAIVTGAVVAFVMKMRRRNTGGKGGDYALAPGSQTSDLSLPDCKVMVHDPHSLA
T1 sequence (P01887 21-119 partner): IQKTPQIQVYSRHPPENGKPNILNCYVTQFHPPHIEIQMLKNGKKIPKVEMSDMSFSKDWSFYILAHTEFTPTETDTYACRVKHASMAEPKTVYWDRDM
Description: (§1) To test peptide binding to murine H-2Kb or human HLA-A*02:01, TAP-deficient RMA/S and T2 cells were used, respectively, as previously reported (59, 60). […] T2 cells (62) were serum-starved in serum-free RPMI media overnight and […] at indicated final concentrations for 16 hours before measuring HLA-A*02:01 levels by flow cytometry (BD; Clone BB7.2). The […] (SEQ ID NO. 287) peptide was acquired as a custom order from Genscript.

C57BL/6J mice = experiment: Peptide immunization (Titermax adjuvant) and IFNγ ELISpot of CD8+ T cells from draining lymph nodes; assay type: in vivo, mouse; settings: for CALR9p2-specific CD8+ T cell response: peptide emulsified in Titermax adjuvant, secondary restimulation with CALR9p2
Description: (§2) All peptides were purchased as custom peptide synthesis orders from GenScript at a purity of >98% and resuspend at 10 mg/mL in DMSO (Sigma). For peptide vaccines, peptides were diluted in PBS and emulsified with Titermax® (Titermax USA, Inc) at a 1:1 ratio immediately prior to immunization, such that each dose was composed of 10 μg peptide in a total volume of 25 uL. In control (DMSO) immunization, an equivalent volume of DMSO is substituted for the diluted peptide in the TiterMax® emulsion. For subsequent in vitro assays, draining inguinal and popliteal lymph nodes were collected at indicated time points and CD8+ T cells were isolated using positive magnetic sorting using mouse CD8a (Ly-2) MicroBeads (Miltenyi Biotec). DNA vaccines were performed using a gene gun as previously described (27, 63) according to indicated time points. Briefly, mice received four injections (400 lbs/inch2) of DNA-coated gold particles into the abdominal region of the skin for a total 4 μg of DNA per dose. DNA plasmids encoding the wildtype or 52 base-pair deletion CALRMUT sequences fused with the flag sequence are as previously described (64). For pING-OVA, the full-length chicken ovalbumin sequence was cloned into the pING plasmid (65). CD8+ T cells were collected as before, but only from draining inguinal lymph nodes. To test for antigen-specificity, the mouse IFNγ ELISpot set (BD) was used according to the manufacturer's instructions. Briefly, CD8+ T cells were frozen immediately after purification in FBS containing 10% DMSO, thawed one day prior to restimulation and allowed to recover overnight in 20 U/mL IL-2 (Peprotech) RPMI-1640 medium containing 10% fetal bovine serum (FBS), Na-Pyruvate, L-glutamine and Penicillin/Streptomycin. As a source of antigen-presenting cells (APCs), splenocytes from naïve mice were depleted of T cells using magnetic microbeads for CD8a (Ly2) and CD4 (L3T4) (Miltenyi Biotec), pulsed for one hour with 100 μg/mL peptide at 37° C. followed by a wash. For each well, 105 CD8+ T cells were co-culture with 1×105-3×105 peptide-pulsed APCs and incubated for approximately 18 hours. Spots were counted using the ImmunoSpot analyzer (Cellular Technology Limited).

peptide-pulsed B16 cells = experiment: Killing assay of peptide-pulsed B16 cells by CD8+ T cells isolated from peptide-immunized mice; assay type: cell-based, mouse; settings: CD8+ T cells from mice immunized with a single dose
CD8+ T cells = experiment: CALR9p2(T5F)-tetramer staining and flow cytometry of CD8+ T cells from immunized mice; assay type: in vivo, mouse
RMA/SpER-CALR9p2 tumors = experiment: Tumor growth experiments with RMA/SpER-CALR9p2 tumors; assay type: in vivo, mouse
Description: as §2
RMA/S cells were maintained in RPMI 1640 medium supplemented with 7.5% inactivated FBS, 1×non-essential amino acids and 2 mM L-glutamine. The DNA sequence encoding the CALR9p2 peptide (bold) was cloned into the PresentER-IRES-GFP (38) construct using the following oligo:
following SfiI digestion and T4 ligation (New England Biolabs). The resulting construct was used to generate retrovirus by co-transfection with pCL-Ampho into ecotropic Pheonix cells (ATCC). Viral supernatants were collected at 48 and 72 hours, pooled and Retro-X Concentrator (Takara Bio USA)-concentrated retrovirus was used to transduce RMA/S cells by spinoculation using polybrene (Sigma). GFP-positive cells were FACS sorted (BD FACSAria III) and cultured in 4 μg/mL puromycin (Gibco) media. A total of 5×10^6 cells were injected subcutaneously in the flank of mice. For anti-PD1 treatment, 250 μg of RMP1-14 was injected intra-peritoneally in PBS at indicated time points.

HLA-A*02:01 = target: T2, HLA-A*02:01 (Homo sapiens, UniProt P04439, D140Y/D185E/D98H/E176V/E277Q/G131W/G231S/I119V/I121R/I166T/I218V/L300P/L318F/N151K/N90K/P208A/P217A/Q86G/Q94H/R138H/R169H/T345S); experiment: MHC-I stabilization assay using human TAP-deficient T2 cells; assay type: cell-based; settings: flow cytometry
T2 construct: endogenous in cells; host or cells: T2 cells (human, TAP-deficient)
Description: as §1

[1] = system: PBMCs from healthy HLA-A*02:01 individuals; experiment: Human PBMC in vitro restimulation, IFNγ+ CD8+ T cells by intracellular staining; assay type: cell-based; settings: six healthy donors; significant (P<0.05) or trending (P<0.30)
Description: Freshly isolated or thawed cryopreserved healthy donor PBMCs were restimulated with cytokines and peptides as previously described (14). Briefly, on day 0, PBMCs were resuspended in X-VIVO15 media (Lonza) and seeded at 105 per well of a 96 U-bottom plate with 1000 IU/mL GM-CSF (Sanofi), 500 IU/mL IL-4 (R&D Systems) and 50 ng/mL Flt3L (R&D Systems). On day 1, media was refreshed with 0.1 μg/mL LPS (Invivogen), 10 μM R848 (Invivogen), 5 μg/mL IL-10 (R&D Systems) and 1 μg/mL of indicated peptides, and incubated for 24 hours. The CMV, EBV, Flu, Tetanus (CEFT) and the myelin oligodendrocyte glycoprotein (MOG) peptide pools (JPT Technologies) were used as positive and negative controls, respectively. On days 2 and 5, half the media was refreshed with RPMI (Gibco) containing 10% human serum (Gemini Bio-Products), 10 ug/ml gentamycin (Gibco), HEPES (Gibco), GlutaMAX (Gibco) and hIL-2 and hIL-7 to a final concentration of 10 IU/mL and 10 ng/mL, respectively (R&D Systems). On day 8, the media was refreshed without cytokines. On day 10, PBMCs were restimulated with corresponding peptides in the presence of 1 μg/mL of anti-hCD28 and anti-hCD49d (BD Biosciences). As controls, some cells were stimulated with PMA (Sigma-Aldrich, 50 ng/mL) and ionomycin (Sigma-Aldrich, 1 μg/mL). […] Data was acquired using the BD Fortessa and the data was analyzed on FlowJo V10 (TreeStar). […]

[2] = target: T3, murine H-2Kb on TAP-deficient RMA/S cells (murine, UniProt P01887 21-119; P01901 22-305); experiment: H-2Kb stabilization assay on RMA/S cells in absence of serum, flow cytometry
T3 construct: whole, on cells;extracellular; MHC class I molecule; surface level read with antibody clone AF6-88.5 by flow cytometry
T3 sequence (MHC heavy, looked up): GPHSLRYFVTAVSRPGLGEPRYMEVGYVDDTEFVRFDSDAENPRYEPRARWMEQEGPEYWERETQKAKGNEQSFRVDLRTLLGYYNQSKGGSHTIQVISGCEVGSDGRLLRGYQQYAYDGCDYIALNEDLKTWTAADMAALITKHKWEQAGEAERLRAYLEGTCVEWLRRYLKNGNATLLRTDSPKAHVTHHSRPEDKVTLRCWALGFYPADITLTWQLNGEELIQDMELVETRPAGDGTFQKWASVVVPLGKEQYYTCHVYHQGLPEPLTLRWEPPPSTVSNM
T3 sequence (b2m, looked up): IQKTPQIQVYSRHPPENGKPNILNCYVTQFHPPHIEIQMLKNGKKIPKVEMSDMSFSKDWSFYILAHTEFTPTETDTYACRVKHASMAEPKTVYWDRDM
Description: To test peptide binding to murine H-2Kb or human HLA-A*02:01, TAP-deficient RMA/S and T2 cells were used, respectively, as previously reported (59, 60).

[3] = target: T3, murine H-2Kb on TAP-deficient RMA/S …; experiment: H-2Kb stabilization assay on RMA/S cells, flow cytometry
[4] = initial CALR9p2(T5F) followed by two CALR9p2 boosts
[5] = two doses of CALR9p2(T5F) and a final CALR9p2 boost
[6] = prophylactic: three doses prior to tumor implantation, vs adjuvant alone
[7] = therapeutic: multiple doses after tumors allowed to grow, vs adjuvant alone

Molecule: RMMRFKMRM [CALR9p2(T5F)]
- fold H-2Kb stabilization compared to CALR9p2 (H-2Kb; absence of serum): tenfold
- CD8+ T cell response to CALR9p2(T5F) (C57BL/6J mice; [4]): very small response to the CALR9p2(T5F) peptide
- cross-reactive CD8+ T cell response to CALR9p2 (C57BL/6J mice; [4]): no detectable cross-reactive CD8+ T cell responses to CALR9p2 in vitro
- CALR9p2-specific CD8+ T cell response (C57BL/6J mice): elicited a CD8+ T cell capable of cross-reacting with CALR9p2 in vitro
- CD8+ T cell response to CALR9p2(T5F) (C57BL/6J mice; [5]): intermediate response to CALR9p2(T5F)
- cross-reactive CD8+ T cell response to CALR9p2 (C57BL/6J mice; [5]): no detectable cross-reactive CD8+ T cells
- killing of tumor cells pulsed with the CALR9p2 peptide (peptide-pulsed B16 cells): killing tumor cells pulsed with the CALR9p2 peptide
- IFNγ restimulation by CALR9p2 of CALR9p2(T5F)-tetramer-specific CD8+ T cells (CD8+ T cells; CD8+ T cells from CALR9p2(T5F)-immunized mice): The only CALR9p2-potentiated CD8+ T cells were those also staining for the CALR9p2(T5F)-tetramer
- Tim3 and Pd1 levels of CALR9p2-specific vs CALR9p2(T5F)-specific CD8+ T cells (CD8+ T cells; after restimulation): equal levels of Tim3 and Pd1
- survival (RMA/SpER-CALR9p2 tumors; prophylactic: three doses prior to tumor implantation): differences in survival were not significant
- tumor growth (RMA/SpER-CALR9p2 tumors; [6]): grew significantly slower
- effect of the vaccine (RMA/SpER-CALR9p2 tumors; therapeutic, administered with immune checkpoint blockade using a PD-1 antibody): even more prominent
- survival (RMA/SpER-CALR9p2 tumors; [7]): improved survival
- tumor growth (RMA/SpER-CALR9p2 tumors; [7]): tumors grew significantly slower

Molecule: RMMRTKMRM [CALR9p2, 9mer CALRMUT peptide starting at position 2, parental native peptide]
- binding to HLA-A*02:01 (stabilization) (HLA-A*02:01): weak binding signal compared to DMSO control
- CD8+ T cell responses (IFNγ) to CALR9p2 alone [1]: three of the six healthy donors
- H-2Kb stabilization (H-2Kb; in the presence of serum): did not elicit detectable H-2Kb stabilization
- H-2Kb stabilization (H-2Kb; serum omitted): poor but still detectable binding
- peptide concentration at which H-2Kb was stabilized (H-2Kb; serum omitted, only the highest concentration): 100 µg/mL
- CALR9p2-specific CD8+ T cell response (C57BL/6J mice): did not elicit any CALR9p2-specific CD8+ T cell response
- tumor growth (RMA/SpER-CALR9p2 tumors; [6]): grew at the same rate

Molecule: SIINFEKL [chicken ovalbumin (OVA)-derived peptide, positive control]
- H-2Kb stabilization (H-2Kb; in the presence of serum): strong binding

Molecule: RMMRFKMRM (Custom synthetic peptide) [CALR9p2(T5F) heteroclitic peptide (RMMRFKMRM)]
- fold H-2Kb stabilization compared to CALR9p2 [2]: ~10 fold

Molecule: SIINFEKL (Custom order from Genscript) [chicken ovalbumin (OVA)-derived peptide SIINFEKL]
- binding result [3]: binds
